Experiment [1] deals with Histone deacetylase 1 (Homo sapiens, UniProt Q13547).
Description: Inhibition of HDAC-1 (unknown origin) using (FAM)-labeled acetylated peptide as substrate after 17 hrs by fluorescence assay
In experiment [2] the target is Histone deacetylase 3 (Homo sapiens, UniProt O15379). The experiment in a line: Inhibition of HDAC-3 (unknown origin) using (FAM)-labeled acetylated peptide as substrate after 17 hrs by fluorescence assay.
Experiment [3] deals with T1, Histone deacetylase 2 (Homo sapiens, UniProt Q92769). The experiment in a line: Inhibition of HDAC-2 (unknown origin) using (FAM)-labeled acetylated peptide as substrate after 17 hrs by fluorescence assay.
T1 sequence (Q92769 whole entry): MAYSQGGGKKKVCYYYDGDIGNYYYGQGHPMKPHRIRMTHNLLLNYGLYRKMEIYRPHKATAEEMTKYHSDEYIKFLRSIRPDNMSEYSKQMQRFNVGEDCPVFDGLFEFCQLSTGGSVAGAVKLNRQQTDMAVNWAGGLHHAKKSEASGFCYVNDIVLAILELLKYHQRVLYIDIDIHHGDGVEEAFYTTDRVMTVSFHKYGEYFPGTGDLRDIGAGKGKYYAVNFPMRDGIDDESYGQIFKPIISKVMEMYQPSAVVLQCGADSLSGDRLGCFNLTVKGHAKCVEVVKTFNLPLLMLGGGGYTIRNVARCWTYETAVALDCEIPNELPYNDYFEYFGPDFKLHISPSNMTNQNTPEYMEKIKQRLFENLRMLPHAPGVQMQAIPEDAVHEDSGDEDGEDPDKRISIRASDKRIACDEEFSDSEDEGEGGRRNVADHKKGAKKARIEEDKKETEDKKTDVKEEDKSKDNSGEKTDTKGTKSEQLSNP
Experiment [4] addresses Histone deacetylase. The experiment in a line: Inhibition of HDAC isolated from human HeLa cell nuclear extracts using Fluor de Lys as substrate after 30 mins by fluorescence assay. The experiment is classed as protein assay.
The target of experiment [5] is Histone deacetylase. The experiment is described as follows: Inhibition of HDAC in human HeLa cells assessed as alpha-tubulin acetylation after 7 hrs. It counts as cell-based.
The target of experiment [6] is Histone deacetylase. The experiment is described as follows: Inhibition of HDAC in human HeLa cells assessed as histone H3 hyperacetylation after 7 hrs. The experiment is classed as cell-based.
The target in experiment [7] is T1, Histone deacetylase 2. The experiment in a line: Inhibition of recombinant human HDAC-2 expressed in baculovirus infected insect Sf9 cells using Fluor de Lys as substrate preincubated for 2 hrs followed by substrate addition measured after 10 mins by fluorescence assay.

pIC50, pKi: −log10 of the molar value.

One may read the pIC50 as −log10 of the IC50, conventionally taken in molar units. A lower pIC50 goes with a large IC50. A word on the IC50: it is the concentration needed to halve the response being measured. A word on the EC50: it is the concentration at which the effect is half-maximal. What is called pKi is the Ki on a negative log10 scale, so that one unit is a factor of ten.

Chain of Histone deacetylase 3 (O15379 whole entry): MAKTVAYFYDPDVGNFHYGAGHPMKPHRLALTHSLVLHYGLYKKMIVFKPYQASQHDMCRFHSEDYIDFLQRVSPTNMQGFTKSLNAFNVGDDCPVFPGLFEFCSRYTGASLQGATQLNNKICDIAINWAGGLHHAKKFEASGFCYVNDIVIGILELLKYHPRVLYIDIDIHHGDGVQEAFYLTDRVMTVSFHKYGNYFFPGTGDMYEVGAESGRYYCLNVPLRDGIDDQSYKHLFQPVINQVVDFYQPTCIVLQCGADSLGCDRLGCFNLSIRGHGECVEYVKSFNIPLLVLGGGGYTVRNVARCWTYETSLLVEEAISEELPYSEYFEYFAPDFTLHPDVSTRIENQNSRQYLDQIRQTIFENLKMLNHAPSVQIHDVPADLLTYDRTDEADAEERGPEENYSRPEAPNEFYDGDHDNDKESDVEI
Chain of Histone deacetylase 1 (Q13547 whole entry): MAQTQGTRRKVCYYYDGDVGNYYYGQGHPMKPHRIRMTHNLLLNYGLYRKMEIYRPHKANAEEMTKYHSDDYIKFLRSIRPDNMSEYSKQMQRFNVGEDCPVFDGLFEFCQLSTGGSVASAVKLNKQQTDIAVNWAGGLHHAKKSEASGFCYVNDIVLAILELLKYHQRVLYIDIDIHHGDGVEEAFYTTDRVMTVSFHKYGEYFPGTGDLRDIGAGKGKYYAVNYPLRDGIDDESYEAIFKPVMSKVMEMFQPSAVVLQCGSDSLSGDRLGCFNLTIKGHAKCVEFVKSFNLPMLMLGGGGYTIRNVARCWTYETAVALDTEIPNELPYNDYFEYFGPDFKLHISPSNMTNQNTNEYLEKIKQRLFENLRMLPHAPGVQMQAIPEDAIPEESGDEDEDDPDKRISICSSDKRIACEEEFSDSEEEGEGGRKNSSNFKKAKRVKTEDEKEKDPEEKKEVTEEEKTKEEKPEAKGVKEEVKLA

As to `Nc1ccccc1NC(=O)CCCCCCC(=O)Nc1ccccc1N`, the values for the pIC50 in experiment [1], in experiment [2] and in experiment [3] were 4.84, 6.01 and 5.32, respectively.

`CC(=O)SCC(=O)c1ccc(NS(=O)(=O)c2ccc(OCCCN(C)C)cc2)nc1`: the concentration for half-maximal inhibition (IC50) in experiment [4] is 0.045 µM. Moreover, the EC50 turned out to be 0.325 µM in experiment [5] and 0.025 µM in experiment [6].

`CCCCc1nc2cc(/C=C/C(=O)NO)ccc2n1CCN(CC)CC` [PRACINOSTAT]: the pKi in experiment [7] is 7.80.

The values are drawn from ChEMBL document CHEMBL3390834, “Development of second generation epigenetic agents” (Medchemcomm, 2012).
